Measured values as given in US9963712B2, “Gene IbENOD93 and transgenic plants using the same” (Korea University Research and Business Foundation, priority 2014, dated 2018).

Columns and labels:
[1] = system: IbENOD93 gene; assay: Regulation of IbENOD93 expression by plant hormone treatment (real-time PCR); assay type: in vivo, sweet potato; conditions: 3 hours, fibrous roots of single-leaf plantlets, 25° C., dark
Procedure: To determine the transcriptional regulation of IbENOD93 gene by treatment with auxin (Indole-3-acetic acid; IAA), jasmonic acid (JA), and […] (6-benzylaminopurine; BA), real-time PCR (RT-PCR) was performed using IbENOD93-specific primers (IbENOD93(360)F 5′-[…]-3′ (SEQ ID. NO.: 9) and IbENOD93(512)R 5′-[…]-3′ (SEQ ID. NO.: 10)).
The roots of sweet potato were treated with hormones according to the following method. Sweet potato plantlets bearing a single leaf and petiole were collected from sweet potato plants and incubated in flasks filled with water for 3 weeks. After fibrous roots had developed from the distal end of the petiole, the single-leaf plantlets were incubated in various concentrations of IAA, JA, and BA solutions (0, 50, 100, 200, 500, 1000 μM) at 25° C. in the dark for 3 hours. After the hormone treatment, total RNA was extracted from the fibrous roots using the RNeasy Plant Mini Kit™ (Qiagen) and used for RT-PCR.
Total RNA (5 μg) was used for first-strand cDNA synthesis using the SuperScript III first-strand cDNA synthesis kit (Invitrogen). The resulting cDNA solution was then diluted with 30 μl of TE and used for PCR. Among a total of 20 μl, 1 μl of the synthesized cDNA was used for the RT-PCR, and KAPA SYBR FAST Master mix (KAPABIOSYSTEMS) was used for a final reaction volume of 16 μl. Real-time PCR analysis was performed using the LightCycler 480 quantification system (Roche Diagnostics) according to the manufacturer's instructions. Expression levels were normalized with β-tubulin expression amplified with 5′-[…]-3′ (SEQ ID. NO.: 11) and 5′-[…]-3′ (SEQ ID. NO.: 12) primers. Real-time PCR was performed starting with pre-denaturation at 95° C. for 10 minutes, followed by 45 cycles of denaturation at 95° C. for 10 seconds, annealing at 58° C. for 10 seconds, and extension at 72° C. for 20 seconds. Following the amplification phase, a melting curve analysis was conducted from 65° C. to 97° C. The second derivative maximum method in the LightCycler 480 quantification software (Roche Diagnostics) was used to evaluate the data.

[2] = system: MADS-box genes (SRD1, IbMADS1); conditions: upon IAA or JA treatment; Noh et al. 2010, Ku et al. 2008; cited from earlier work

For `c1ccc(CNc2ncnc3nc[nH]c23)cc1` [BA, 6-benzylaminopurine], the “transcript level of IbENOD93” value ([1]; BA at 100 μM or higher) was “increased slightly”.

For `O=C(O)Cc1c[nH]c2ccccc12` [IAA, Indole-3-acetic acid], the “transcript level of IbENOD93” value ([1]; 500 μM IAA) is given as “increased sharply” and the “transcript level of MADS-box genes (SRD1, IbMADS1)” value [2] is given as “increased sharply”.

For `CC/C=C\C[C@H]1C(=O)CC[C@@H]1CC(=O)O` [JA, jasmonic acid], the “transcript level of IbENOD93” value ([1]; 200 μM JA) is listed as “increased sharply” and the “transcript level of MADS-box genes (SRD1, IbMADS1)” value [2] is listed as “increased sharply”.
